Reference: US9926605B2, “Functional genomics screening platform for head and neck cancer” (University of Pittsburgh—of the Commonwealth System of …, priority 2012, dated 2018)

Key:
[1] = test system: UM-SCC47 cells expressing the HRAS(Q61K) mutant; assay: Growth inhibition of UM-SCC47 cells expressing HRAS(Q61K); assay type: cell-based, human; settings: 250 nM, 24 hours; HRAS(Q61K) vs HRAS WT and EGFP vector control cells, n=4
Description: (A) HRAS wildtype (WT) and HRAS (Q61K) mutant or an EGFP vector control was introduced into the HPV-HSNCC cell line, UM-SCC47, by retroviral infection.
To test whether increased PI3K signaling can be achieved by mutations in HRAS, a hotspot HRAS mutation found in our HNSCC cohort, HRAS(Q61K), was generated. Experiments were performed to determine the effect this mutation had on PI3K activation and response to PI3K pathway inhibition.

[2] = test system: UMSCC-47 cells expressing PIK3CA (WT) or PIK3CA (E542K) mutant; settings: 0 to 10 μM, 72 h; PIK3CA WT or E542K expressing cells vs vector control
Description: Retrovirus-infected UMSCC-47 cells expressing control EGFP gene, PIK3CA (WT) or PIK3CA (E542K) mutant were subjected to BEZ-235 (from 0 to 10 μM) treatment for 72 h followed by growth determinations.
To determine the effects of individual PIK3CA mutations on sensitivity to PI3K pathway inhibitors in HNSCC, we tested the effects of a representative PI3K pathway inhibitor (BEZ-235) in HPV-HNSCC cells engineered to express mutant or WT PIK3CA (E542K) a HNSCC line harboring a PIK3CA mutation.

[3] = test system: PE/CA-PJ49 (PTPRD I1821V) versus PE/CAPJ34 (Clone 12) HNSCC cells; assay: MTT assay in HNSCC cell lines with endogenous mutant versus WT PTPRD; assay type: cell-based, human; settings: 24 hours, n=3, mutant PTPRD (I1821V) cells vs WT PTPRD cells
Description: To determine if PTPR mutation enhances sensitivity to STAT3 pathway inhibitors, HNSCC cell lines harboring endogenous PTPR mutation were compared with cell lines containing WT PTPRs. Cells were plated at equal density (3×10^4/well), treated with various concentration of the STAT3 inhibitors, Stattic (Sigma-Aldrich, MO), a small molecule inhibitor of STAT3 activation and dimerization, or JSI-124 (Calbiochem, MA) for 24 hours, followed by MTT assay (n=3). EC50 values were determined, with extrapolation at 20 μM, by GraphPad Prism 5 software.

[4] = test system: PCI-52-SD1 cells expressing PTPRT(R1059L); assay: Growth inhibition of PCI-52-SD1 cells expressing PTPRT(R1059L) by JAK/STAT inhibitor; assay type: cell-based, human; settings: 24 hours of treatment; PTPRT(R1059L) cells vs vector control cells, n=4
Description: FIG. 6. Mutation of PTPRT(R1059L) leads to increased sensitivity to STAT3 inhibition in PCI-52-SD1 cells. PCI-52-SD1 cells were infected with retrovirus expressing the PTPRT(R1059L) mutant gene or PTPRT wildtype (WT) versus vector control (pMXs-EGFP vector).
Overall, our models can be used to determine if the mutation detected in a human tumor is important for tumor growth and facilitate selection of the appropriate therapeutic agents.

[5] = test system: UM-SCC1 cells expressing mutant PTPRD (P1311T); assay: MTT survival and STAT3 promoter activity in UM-SCC1 cells expressing mutant PTPRD; assay type: cell-based, human; settings: PTPRD mutant cells compared with controls
Description: FIG. 14. […] UM-SCC1 cells expressing mutant PTPRD (P1311T) or vector control were treated with AZD1480 (5 μm) or DMSO (vehicle) followed by MTT assay to determine % survival relative to vehicle control. Results are mean±SEM, performed in triplicate.
(§1) The effect of AZD1480 on STAT3 tyrosine phosphorylation and cell growth was further assessed in a panel of HNSCC cell lines.

[6] = test system: HNSCC patient tumorgrafts; assay: Heterotopic HNSCC patient tumorgrafts in NOD/SCID mice; assay type: in vivo
Description: FIG. 12A-B. AZD1480 inhibits HNSCC patient tumorgraft growth in conjunction with reduce pSTAT3 expression. (A) Mice bearing heterotropic HNSCC patient tumorgrafts derived from 2 patients (10 mice per group) were treated with AZD1480 (30 mg/kg) or vehicle control, twice daily by oral gavage. Tumor volumes were measures every other day. Statistical difference was determined at the end of the experiment using the Mann-Whitney two-tailed test. (B) Tumors were harvested at the end of treatment, and whole cell lysates were prepared and subjected to immunoblotting with pSTAT3 (Tyr705) and STAT3 antibody. Beta-tubulin was used to assess protein loading. Densitometry was performed and bar graphs illustrate the cumulative findings from each HNSCC tumorgraph experiment.
In vivo studies have generally relied on xenograft tumors derived from implantation of immortalized HNSCC cell lines into immunocompromised mice. To generate a more clinically relevant platform to assess the antitumor effects of candidate therapies, human tumors were directly inoculated into NOD/SCID mice. To date, implanted tumors from 35 HNSCC patients were obtained according to previously described methods. Twenty-six of these tumors have grown successfully in mice at a median time of 16 weeks (range 6-26 weeks) for a take rate of 74%. […]

WT JAK2 = WT JAK2 (Homo sapiens, UniProt O60674); settings: read-out: enzyme IC50; cited from earlier work
Sequence of WT JAK2 (O60674 whole entry): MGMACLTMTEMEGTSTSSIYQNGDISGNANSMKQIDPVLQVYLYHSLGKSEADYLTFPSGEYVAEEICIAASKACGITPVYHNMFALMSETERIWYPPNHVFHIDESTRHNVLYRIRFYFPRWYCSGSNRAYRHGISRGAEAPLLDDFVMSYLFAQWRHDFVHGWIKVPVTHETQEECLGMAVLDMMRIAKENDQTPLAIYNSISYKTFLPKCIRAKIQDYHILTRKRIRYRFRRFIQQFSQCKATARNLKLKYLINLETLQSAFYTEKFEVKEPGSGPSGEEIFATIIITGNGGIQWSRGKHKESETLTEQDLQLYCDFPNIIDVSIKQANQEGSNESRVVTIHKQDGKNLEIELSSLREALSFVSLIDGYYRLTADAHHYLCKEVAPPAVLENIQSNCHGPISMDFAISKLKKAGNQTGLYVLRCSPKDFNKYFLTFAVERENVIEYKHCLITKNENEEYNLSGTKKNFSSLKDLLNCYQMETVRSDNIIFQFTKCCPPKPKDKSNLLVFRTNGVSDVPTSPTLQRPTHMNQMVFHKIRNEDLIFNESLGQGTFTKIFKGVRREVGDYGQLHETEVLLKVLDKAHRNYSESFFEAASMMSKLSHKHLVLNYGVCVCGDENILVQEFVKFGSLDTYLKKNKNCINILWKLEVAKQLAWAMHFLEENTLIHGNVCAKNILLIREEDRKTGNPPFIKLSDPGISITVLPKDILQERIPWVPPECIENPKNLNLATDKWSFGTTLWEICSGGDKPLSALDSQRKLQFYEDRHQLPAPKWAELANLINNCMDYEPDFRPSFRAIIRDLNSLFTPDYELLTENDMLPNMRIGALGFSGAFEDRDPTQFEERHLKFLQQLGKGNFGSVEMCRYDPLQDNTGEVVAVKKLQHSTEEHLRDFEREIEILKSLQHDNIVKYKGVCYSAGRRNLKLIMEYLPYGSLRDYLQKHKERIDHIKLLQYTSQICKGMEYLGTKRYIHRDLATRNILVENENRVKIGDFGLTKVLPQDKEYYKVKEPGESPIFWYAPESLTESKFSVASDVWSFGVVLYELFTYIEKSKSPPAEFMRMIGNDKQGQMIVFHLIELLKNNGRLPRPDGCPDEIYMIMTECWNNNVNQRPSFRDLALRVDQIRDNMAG

[7] = test system: phospho-STAT3 (Tyr705) in UMSCC-1 cells; assay: pSTAT3 (Tyr705) immunoblotting in HNSCC cell line; assay type: cell-based, human; settings: increasing concentration, 24 hours, immunoblot
Description: FIG. 13. […] UMSCC-1 cells were treated with increasing concentration of AZD1480. After 24 hours, cells were harvested to obtain cell lysates. Forty micrograms of protein/lane were subjected to electrophoresis and immunoblotted for phosphor-STAT3 (Tyr705) and total STAT3. Beta-tubulin was used as a loading control.
as §1

9 HNSC cell lines = assay: Proliferation of a panel of HNSCC cell lines; assay type: cell-based; settings: Homo sapiens; range in 9 HNSC cell lines tested; data not shown; read-out: EC50 (inhibition of proliferation)
Description: as §1

Cn1c(=O)n(-c2ccc(C(C)(C)C#N)cc2)c2c3cc(-c4cnc5ccccc5c4)ccc3ncc21 [BEZ-235]
sensitivity to growth inhibition [1]: more sensitive to growth inhibition | sensitivity to BEZ-235 treatment (growth) [2]: more sensitive to BEZ-235 treatment than vector control transfected cells

O=[N+]([O-])c1ccc2c(c1)S(=O)(=O)C=C2 [Stattic]
sensitivity to growth inhibitory effects of STAT3 pathway inhibitors [3]: more sensitive to the growth inhibitory effects

CC(C)(O)/C=C/C(=O)[C@](C)(O)[C@H]1[C@H](O)C[C@@]2(C)[C@@H]3CC=C4[C@@H](C=C(O)C(=O)C4(C)C)[C@]3(C)C(=O)C[C@]12C [JSI-124]
sensitivity to growth inhibition [4]: more sensitive to growth inhibition | sensitivity to growth inhibitory effects of STAT3 pathway inhibitors [3]: more sensitive to STAT3 pathways inhibitors

Cc1cc(Nc2nc(N[C@@H](C)c3ncc(F)cn3)ncc2Cl)n[nH]1 [AZD1480, 5-chloro-N2-[(1S)-1-(5-fluoropyrimidin-2-yl)ethyl]-N4-(5-methyl-1H-pyrazol-3-yl)pyrimidine-2,4-diamine]
survival ([5]; AZD1480 5 μm, MTT): decreased survival | STAT3 promoter activity [5]: decreased survival and STAT3 promoter activity | antitumor effects (tumorgraft growth) ([6]; heterotopic HNSCC patient tumorgrafts in mice, AZD1480 30 mg/kg twice daily by oral gavage): demonstrated antitumor effects | expression of pSTAT3 and STAT3 target genes in tumors ([6]; heterotopic xenografts from 2 HNSCC human tumors, end of treatment): decreased expression of pSTAT3 and STAT3 target genes | IC50 (WT JAK2): < 0.003 µM | pSTAT3 expression [7]: reduced pSTAT3 expression in a dose- and time-dependent manner | EC50 (9 HNSC cell lines): 0.99 to 3.8 µM
